# According to PMC6327487, “A cytosolic NAD^+-dependent GPDH from maize (ZmGPDH1) is involved in conferring salt and osmotic stress tolerance” (BMC Plant Biology, 2019):
# B1: ZmGPDH1 (Zea mays subsp. mays) (protein)
# chain: MVGSVHVNGSVHGGNGTATEERLDELRRLLGKSEGDLLKIVSVGAGAWGSVFAALLQDAYGHFRDKVQIRIWRRPGRTVDRSTAEHLFEVINSREDVLRRLIRRCAYLKYVEARLGDRTLYADEILKDGFCLNMIETPLCPLKVVTNLQEAVWDADIVVNGVPSTETREVFDEISEYWKERISVPVIISLAKGIEASLDPIPRIITPTQMISSATGVPTENILYLGGPNIASEIYNKEYANARICGSNKWRKPLAKFLRQPHFIVWDNSDLVTHEVMGGLKNVYAIGAGMVAALTNESATSKSVYFAHCTSEMIFITHLLTEQPEKLAGPLLADTYVTLLKGRNAWYGQMLAKGELSPDMGDSIKGKGMIQGISAVGAFFELLSQPSLSVQHPEENKQVAPAELCPILKRLYRILIKRELPARDILQALRDETMNDPRERIEMAQSHAFYRPSLLGKP
# notes: full-length CDS (458 residues, 51 kDa; 1377 bp) in pET32a(+) NcoI/XhoI, 6xHis fusion of about 65 kDa, E. coli Rosetta (DE3), Ni-NTA
# Tests used:
# [1] = target: T1, ZmGPDH1 (Zea mays, UniProt A0A345VNI6); experiment: GPDH activity with and without NADH; assay type: biochemical; settings: 4 mM DHAP, 0.2 mM NADH, 100 mM HEPES pH 6.9 (general assay)
# T1 construct: gene GPDH1; full-length CDS (458 residues, 51 kDa; 1377 bp) in pET32a(+) NcoI/XhoI, 6xHis fusion of about 65 kDa, E. coli Rosetta (DE3), Ni-NTA
# T1 sequence (A0A345VNI6 1-458): B1 chain
# [2] = substrate: O=C(CO)COP(=O)(O)O; experiment: purified protein; assay type: biochemical, Zea mays; settings: DHAP reduction, 0.2 mM NADH, 100 mM HEPES pH 6.9 (general assay)
molecule,measurement,setting,value
NC(=O)C1=CN([C@@H]2O[C@H](COP(=O)(O)OP(=O)(O)OC[C@H]3O[C@@H](n4cnc5c(N)ncnc54)[C@H](O)[C@@H]3O)[C@@H](O)[C@H]2O)C=CC1 [NADH],GPDH activity with and without NADH,[1],addition of NADH strongly stimulated the enzyme activity
B1,Km,[2],2750 µM
